Results taken from patent publication US20090042987A1, “TREATMENT OF NEUROPATHIC PAIN” (priority 2007, published 2009).
Entries after “also recorded” stand apart in the source; their conditions may differ.

Assays:
Assay type in all cases: in vivo, rat
[1] = system: STZ-diabetic rats; experiment: von Frey paw withdrawal thresholds, STZ-diabetic rats given multiple dosing regimens (washout protocol), Example 1; details: gabapentin 100 mg/kg s.c.
Protocol: (§1) Experimental Animals Ethical approval for this study was obtained from the Animal Experimentation Ethics Committee of The University of Queensland. Adult male Sprague-Dawley (SD) rats (222±4 g) were used for this study. Rats were housed in a temperature controlled room (21+2.0 C) with a 12/12 hour light/dark cycle. Food and water were available ad libitum. Initiation of drug administration occurred at 8-11 weeks post-STZ administration for rats in Experiment 1 (PCT-001) and at 10-12 weeks post-STZ administration for rats in Experiment 2 (PCT-007).
(§2) Test Article Tranilast was supplied by the Sponsor and stored at −4° C. until use. Gabapentin (100 mg/kg, dissolved in water for injection) was utilized as the positive control for this study.
(§3) Test Article and Vehicle Preparation Test article formulations were prepared freshly on the day of administration by weighing the appropriate amount of bulk powder and suspending it in the required volume of vehicle. Carboxymethyl cellulose ((CMC) 0.5% in water for injection) was utilized as the vehicle for this study.
(§4) Test Article Administration. […] The maximum oral gavage volume administered in this study was […]. 4.4
(§5) STZ-Diabetic Rat Model of Painful Diabetic Neuropathy. Painful diabetic neuropathy is a common long-term complication of diabetes in humans that develops as a result of a sustained biochemical nerve injury. […] Following the induction of diabetes with intravenous STZ at 70-80 mg/kg, it generally takes 6-8 wks for tactile allodynia, the defining symptom of PDN, to fully develop in both rat hindpaws.
(§6) Induction of STZ-Diabetes in Rats. On day 0, rats were anaesthetized with 3% isoflurane:97% O2 and a short polyethylene cannula (0.5 mm ID, 0.8 mm OD) was inserted into the jugular vein to facilitate the intravenous (i.v.) administration of a single dose of streptozotocin (STZ: 70-80 mg/kg). After STZ injection, the cannula was removed and the jugular vein was tied off and the wound was closed. Rats received subcutaneous benzylpenicillin (60 mg) prior to surgery to prevent infection and were kept warm during surgical recovery. Rats were housed singly prior to further experimentation and were monitored daily from the time of STZ administration with regard to general health and well-being.
(§7) Von Frey Assessment of Paw Withdrawal Thresholds. Calibrated von Frey filaments were used to determine the lowest mechanical threshold required to evoke a brisk paw withdrawal reflex in the rat hindpaws. Briefly, rats were transferred individually to wire mesh testing cages (20 cm×20 cm×20 cm) and allowed to acclimatize for approximately 10-20 min prior to von Frey testing. Commencing with the von Frey filament that produced the 6 g force, the filament was applied to the plantar surface of the hindpaw until the filament buckled slightly. Absence of a response after 3 s prompted use of the next filament of increasing weight. A withdrawal response within 3 s prompted use of the next filament of decreasing weight. Filaments used produced buckling weights of 2, 4, 6, 8, 10, 12, 14, 16, 18 and 20 g. […] Tactile allodynia is regarded as being fully developed when von Frey PWTs in the injured hindpaws are <6 g.
Restoring von-Frey PWTs in the hindpaws from <6 g to pre-STZ surgery levels (12±2 g) is the treatment goal representing full reversal of tactile allodynia. If drug treatment increases PWTs above pre-surgical baseline values (i.e. >12±2 g), such a response is classified as antinociception. Before administration of STZ, baseline von Frey measurements were assessed. Following STZ administration, baseline PWTs were assessed in the hindpaws at week 8-11 to confirm the development of diabetes-induced tactile allodynia. […]

[2] = system: drug-naïve STZ-diabetic rats; experiment: von Frey paw withdrawal thresholds, drug-naïve STZ-diabetic rats, Example 2
Protocol: as §1, §2, §3, §4, §5, §6, §7
Restoring von-Frey PWTs in the hindpaws from <6 g to pre-STZ surgery levels (12±2 g) is the treatment goal representing full reversal of tactile allodynia. If drug treatment increases PWTs above pre-surgical baseline values (i.e. >12±2 g), such a response is classified as antinociception. Before administration of STZ, baseline von Frey measurements were assessed. Following STZ administration, baseline PWTs were assessed in the hindpaws at week 8-11 to confirm the development of diabetes-induced tactile allodynia.
Dose-Response Curve for Tranilast in Drug-Naive STZ-Diabetic Rats. […]

[3] = system: STZ-diabetic rats; experiment: Behavioural observations / adverse effects in STZ-diabetic rats; details: gabapentin 100 mg/kg s.c., 7 consecutive twice-daily bolus doses
From the text: Behavioural Observations. STZ-diabetic rats were monitored for visible and audible signs of distress throughout the testing period. The visible signs of distress included behavioural changes such as complete immobility, movement with abnormal gait, agitation, aggression, wet dog shakes, excessive grooming, restlessness with constant movement, repeated sudden movements or staring.

[4] = gabapentin 100 mg/kg s.c., 7th twice-daily dose
[5] = gabapentin 100 mg/kg s.c., after 7th consecutive twice-daily dose

NCC1(CC(=O)O)CCCCC1 [Gabapentin]
Relief of tactile (mechanical) allodynia in the hindpaws ([1]; 7 consecutive twice-daily doses, multiple dosing regimens): significant relief of tactile (mechanical) allodynia
Mean (±SEM) PWT at the mean time of peak response ([1]; 7th twice-daily dose, 1 h post-dosing): 11.0 (±1.0) g
Time of peak anti-allodynia post-dosing ([1]; 7th twice-daily dose, multiple dosing regimens): 0.75 to 1.25 h
Mean (±SEM) PWT pre-dose ([1]; 7th twice-daily dose, pre-dose): 4.5 (±0.5) g
Baseline PWT thresholds assessed prior to dose 1, 3, 5 and 7 ([2]; gabapentin 100 mg/kg s.c. twice-daily): not significantly different
Mean (±SEM) von Frey Paw Withdrawal threshold assessed prior to dose ([2]; gabapentin 100 mg/kg s.c. twice-daily, prior to dose 1): 3.7 ± 0.6 g
Mean (±SEM) von Frey Paw Withdrawal threshold assessed prior to dose ([2]; gabapentin 100 mg/kg s.c. twice-daily, prior to dose 3): 4.0 ± 0 g
Mean (±SEM) von Frey Paw Withdrawal threshold assessed prior to dose ([2]; gabapentin 100 mg/kg s.c. twice-daily, prior to dose 5): 4.7 ± 0.5 g
Mean (±SEM) von Frey Paw Withdrawal threshold assessed prior to dose ([2]; gabapentin 100 mg/kg s.c. twice-daily, prior to dose 7): 4.5 ± 0.4 g
Mean (±SEM) von Frey Paw Withdrawal threshold following the 7th consecutive dose ([2]; gabapentin 100 mg/kg s.c. twice-daily, time 0 h (pre-dose)): 4.5 ± 0.2 g
Mean (±SEM) von Frey Paw Withdrawal threshold following the 7th consecutive dose ([2]; gabapentin 100 mg/kg s.c. twice-daily, time 0 h (pre-dose), listed as gabapentin): 4.5 (±0.2) g
Mean (±SEM) von Frey Paw Withdrawal threshold following the 7th consecutive dose ([2]; gabapentin 100 mg/kg s.c. twice-daily, time 0.15 h): 5.75 ± 0.2 g
Mean (±SEM) von Frey Paw Withdrawal threshold following the 7th consecutive dose ([2]; gabapentin 100 mg/kg s.c. twice-daily, time 0.5 h): 6.25 ± 0.2 g
Mean (±SEM) von Frey Paw Withdrawal threshold following the 7th consecutive dose ([2]; gabapentin 100 mg/kg s.c. twice-daily, time 0.75 h): 7.5 ± 0.6 g
Mean (±SEM) von Frey Paw Withdrawal threshold following the 7th consecutive dose ([2]; gabapentin 100 mg/kg s.c. twice-daily, time 1 h): 8.5 ± 0.5 g
Mean (±SEM) von Frey Paw Withdrawal threshold following the 7th consecutive dose ([2]; gabapentin 100 mg/kg s.c. twice-daily, time 1.25 h): 9.0 ± 1.0 g
Mean (±SEM) von Frey Paw Withdrawal threshold following the 7th consecutive dose ([2]; gabapentin 100 mg/kg s.c. twice-daily, time 1.25 h, listed as gabapentin): 9.0 (±1.0) g
Mean (±SEM) von Frey Paw Withdrawal threshold following the 7th consecutive dose ([2]; gabapentin 100 mg/kg s.c. twice-daily, time 1.5 h): 9.0 ± 0.7 g
Mean (±SEM) von Frey Paw Withdrawal threshold following the 7th consecutive dose ([2]; gabapentin 100 mg/kg s.c. twice-daily, time 2 h): 7.0 ± 0.4 g
Mean (±SEM) von Frey Paw Withdrawal threshold following the 7th consecutive dose ([2]; gabapentin 100 mg/kg s.c. twice-daily, time 3 h): 6.5 ± 0.3 g
Relief of tactile allodynia in the hindpaws ([2]; gabapentin 100 mg/kg s.c., 7 consecutive twice-daily doses): significant relief of tactile allodynia
Mean duration of action [2, 4]: > 3 h
Time of peak anti-allodynia post-dosing [2, 4]: 1 to 1.5 h
Mean (±SEM) AUC (area under the normalized PWT versus time curve) [2, 5]: 8.3 ± 0.4
Mean (±SEM) Peak response (PWT) [2, 5]: 9.0 ± 1.0
Mean (±SEM) % MPR at peak ([2]; gabapentin 100 mg/kg s.c., after 7th consecutive twice-daily dose, 100% MPR = full reversal of tactile allodynia): 75.8 ± 17.2%
% MPR at the time of peak effect compared with vehicle ([2]; gabapentin s.c. 100 mg/kg, 7th consecutive twice-daily dose): significantly greater than that for vehicle
Adverse (behavioural) effects [3]: no discernible adverse effects; also recorded: did not produce discernible adverse behavioural effects
